# What was measured:
# HA–Abi1 = assay: GFP-Trap co-IP of HA–Abi1 by Caskin2-GFP constructs in COS-7 cells; type: binding; settings: for HA–Abi1 binding: GFP-Trap, western blot, three independent experiments
# Experimental: (§1) For transient expression, COS-7 cells were grown to 70% confluence in 10 cm culture dishes and transfected with plasmid DNAs using the DEAE–dextran method ([Schaapveld et al., 1998]). Briefly, 4.5 µg of plasmid DNA was mixed with 500 µg/ml DEAE–dextran in 2.5 ml PBS. Cells were washed two times with PBS and then incubated for 30 min at 37°C with the DEAE–dextran solution. Subsequently, 80 µM chloroquine was added to the cells in 10 ml DMEM with FCS and cells were incubated at 37°C for 3 h. After aspiration of the medium, the cells were treated with 3 ml of DMEM with FCS containing 10% DMSO for 2.5 min. The DMSO solution was then removed and replaced with fresh medium, after which the cells were further incubated for 48–72 h before analysis.
# (§2) For analysis of protein in whole-cell lysates, cells were washed three times with cold PBS, lysed in Nonidet P-40 lysis buffer [20 mM Tris-HCl pH 7.5, 100 mM NaCl, 1% NP-40), supplemented with Na3VO4 (1.5 mM), NaF (15 mM), protease inhibitor cocktail (1:1000; Sigma-Aldrich) and phosphatase inhibitor cocktail 3 (1:100; Sigma-Aldrich)] and cleared by centrifugation at 14,000 g for 1 h at 4°C. After addition of an equal volume of 4× sample buffer (200 mM Tris-HCl pH 6.8, 10% SDS, 40% glycerol 0,1% Bromophenol Blue and 2% mercaptoethanol) and heating the samples at 95°C for 5 min, the samples were loaded on Novex NuPAGE 4–12% gradient Bis-Tris gels (Invitrogen) and transferred onto Immobilon® PVDF membranes. Membranes were blocked for at least 2 h in 2% BSA in TBST (10 mM Tris-HCl pH 7.5, 150 mM NaCl with 0.05% Tween 20] before incubation with primary antibody overnight at 4°C and with secondary antibody for 1 h at room temperature. After each incubation step, the membranes were washed twice with TBST and twice with TBS (TBST without Tween 20). Finally, proteins were visualized using Clarity™ Western ECL Substrate (Bio-Rad Laboratories), as described previously ([Wang et al., 2020b]).
# (§3) GFP-Trap pulldown experiments were performed as follows. Cleared lysates containing equal amounts of proteins, as determined by a Pierce™ BCA Protein Assay, were incubated with GFP-Trap agarose beads (Chromotek) in a rotation wheel for 6 h at 4°C. Beads were washed three times with Nonidet P-40 lysis buffer and two times with cold PBS. Bound proteins and input samples (whole-cell lysates, 1%) were then loaded on gel and transferred to Immobilon-P transfer membranes, after which the blotted proteins were probed with antibodies, as described above.
# pCaskin2 (S878) = assay: Caskin2 S878 phosphorylation (GFP-Trap, western blot) in GE11tetONβ1 cells; type: cell-based; settings: for Caskin2 phosphorylation on S878 after growth factor: EGF 100 ng/ml or PDGF 50 ng/ml, serum-starved 16 h; for EGF-induced phosphorylation of Caskin2 at serine 878 with inhibitor: inhibitor 100 nM, 1 h pretreatment, EGF 100 ng/ml for 15 min
# From the text: To explore the role of Caskin2-S878 further in regulating the Abi1 interaction, we developed a phospho-specific antibody targeting this serine. Unfortunately, high non-specific binding of the phospho-Caskin2 antibody protein sample prevented its consistent use in detecting phosphorylated Caskin2 in western blot analysis of whole-cell lysates. […] Abi1 functions downstream of growth factor receptor signaling to control Rac1-dependent actin rearrangements. Therefore, we hypothesized that Caskin2-S878 phosphorylation might occur downstream of growth factor receptor stimulation. To explore this, we conducted co-IP experiments using GE11^tetONβ1 cells stably expressing Caskin2-FL–GFP stimulated with either EGF or PDGF. […] To gain insight into the kinases involved in the EGF-induced phosphorylation of Caskin2 at serine 878, we pretreated the cells with mTOR (AZD8055) and MEK1/2 (Trametinib) inhibitors for 1 h before stimulation.
# as §2, §3
# For EGF- and PDGF-BB-induced stimulation of Caskin2 phosphorylation, cells were serum starved for 16 h in DMEM without FCS. […]
# Caskin2–Abi1 = Caskin2–Abi1 binding after growth factor stimulation (GFP-Trap, western blot) in GE11tetONβ1 cells; type: cell-based; settings: for Caskin2–Abi1 binding after growth factor: EGF 100 ng/ml or PDGF 50 ng/ml, serum-starved 16 h; for EGF-stimulated loss of Abi1 binding with inhibitor: inhibitor 100 nM, 1 h pretreatment, EGF 100 ng/ml for 15 min
# Experimental: (§4) For analysis of protein in whole-cell lysates, cells were washed three times with cold PBS, lysed in Nonidet P-40 lysis buffer [20 mM Tris-HCl pH 7.5, 100 mM NaCl, 1% NP-40), supplemented with Na3VO4 (1.5 mM), NaF (15 mM), protease inhibitor cocktail (1:1000; Sigma-Aldrich) and phosphatase inhibitor cocktail 3 (1:100; Sigma-Aldrich)] and cleared by centrifugation at 14,000 g for 1 h at 4°C.
# as §3
# For EGF- and PDGF-BB-induced stimulation of Caskin2 phosphorylation, cells were serum starved for 16 h in DMEM without FCS. The serum-starved cells were then treated with 100 ng/ml EGF (Sigma-Aldrich) or 50 ng/ml PDGF-BB (Sigma-Aldrich) at 37°C for the indicated times. Serum-starved cells treated with EGF and the signal transduction inhibitors AZD8055 (mTOR inhibitor, Selleckchem) and Tramatinib (MEK1/2 inhibitor, Selleckchem) were first pre-treated with the inhibitor for 60 min before they were treated with the growth factor for 15 min.
# 14-3-3 proteins = assay: GFP-Trap co-IP of 14-3-3 proteins in GE11tetONβ1 cells; type: binding
# Experimental: (§5) For analysis of protein in whole-cell lysates, cells were washed three times with cold PBS, lysed in Nonidet P-40 lysis buffer [20 mM Tris-HCl pH 7.5, 100 mM NaCl, 1% NP-40), supplemented with Na3VO4 (1.5 mM), NaF (15 mM), protease inhibitor cocktail (1:1000; Sigma-Aldrich) and phosphatase inhibitor cocktail 3 (1:100; Sigma-Aldrich)] and cleared by centrifugation at 14,000 g for 1 h at 4°C. After addition of an equal volume of 4× sample buffer (200 mM Tris-HCl pH 6.8, 10% SDS, 40% glycerol 0,1% Bromophenol Blue and 2% mercaptoethanol) and heating the samples at 95°C for 5 min, the samples were loaded on Novex NuPAGE 4–12% gradient Bis-Tris gels (Invitrogen) and transferred onto Immobilon® PVDF membranes. […]
# (§6) GFP-Trap pulldown experiments were performed as follows. Cleared lysates containing equal amounts of proteins, as determined by a Pierce™ BCA Protein Assay, were incubated with GFP-Trap agarose beads (Chromotek) in a rotation wheel for 6 h at 4°C. […]
# Abi1 = assay: Immunofluorescence colocalization of Caskin2-GFP constructs with Abi1 in GE11tetONβ1 cells; type: cell-based; settings: cell periphery
# Experimental: PA-JEB/β4 keratinocytes were seeded on glass coverslips and cultured for 24 h in complete KGM, and then continued to be cultured for a further 16 h in DMEM with 10% FCS. GE11^tetONβ1 and MCF7 cells were seeded on glass coverslips and cultured for 24 h in DMEM with 10% FCS. Cells were fixed in 2% paraformaldehyde and permeabilized with 0.2% Triton X-100 for 5 min, blocked with PBS containing 2% bovine serum albumin (BSA; Sigma-Aldrich) for 45 min and subsequently incubated with primary and secondary antibodies for 1 h. In between antibody steps, the coverslips were washed three times with PBS. Actin fibers were visualized by staining with Phalloidin–Alexa Fluor 647 (Cell Signaling Technology). Nuclei were stained with DAPI. Samples were mounted on glass slides in Mowiol after three washing steps with PBS. Images were acquired with a Leica TCS SP5 confocal microscope with a 63× (NA 1.4) oil objective. Software for image acquisition is Leica LAS AF 3.0.2 ([Wang et al., 2020b]).
# Imaging analysis was performed using FIJI software ([Schindelin et al., 2012]). The levels of colocalization between Caskin2 and various other proteins, including integrin β4, FA proteins and CMSC components, was performed using Pearson's co-efficient analysis in the JACoP module of ImageJ ([Carisey et al., 2013]; [Wang et al., 2020b]).
# GE11tetONβ1 cells = assay: Cell migration (time-lapse cell motility) of GE11tetONβ1 cells; type: cell-based; settings: 20 h time-lapse, DMEM 1% FCS; two independent experiments
# Experimental: Cell motility assays were conducted using time-lapse recordings of cells cultured on plastic 12-well plates in DMEM containing 1% FCS and 1% antibiotics. Phase-contrast images were acquired using a Zeiss AxioObserver Z.1 microscope equipped with a heated stage (37°C and 5% CO2), with a 10×/0.30 EC Plan-Neofluar Ph1 objective (Zeiss), captured with a Zeiss AxioCam MRm. Images were acquired every 10 min for 20 h. Cells were tracked manually using ImageJ; tracking data was analyzed using the Chemotaxis Tool plugin (Ibidi).
# endogenous talin = assay: GFP-Trap pulldown of talin by Caskin2-GFP constructs in COS-7 cells; type: binding; settings: western blot, n=3
# Experimental: as §1, §5, §6
# [1] = test system: endogenous Abi1, Wasf1, Cyfip2 and Nckap1; assay: GFP-Trap co-IP of endogenous WRC components in GE11tetONβ1 cells; type: binding
# Experimental: as §5, §6
# talin = assay: GFP-Trap pulldown of talin by Caskin2-GFP constructs in GE11tetON β1 cells; type: binding; settings: western blot, with and without doxycycline
# Experimental: as §5, §6
# Caskin2 = assay: GFP-Trap co-IP of Caskin2 by GFP-tagged talin constructs in COS-7 cells; type: binding, Human; settings: western blot
# Experimental: as §1
# as §4, with “4°C. […]” for “4°C.”
# as §6
compound,measurement,setting,value
"Caskin2-S878D–GFP: phosphomimetic mutant of Caskin2–GFP, S878 to aspartic acid",reduction of HA–Abi1 binding,"HA–Abi1; co-IP, phosphomimetic mutant",~80%
PDGF,Caskin2 phosphorylation on S878 after growth factor,pCaskin2 (S878),increase in Caskin2 phosphorylation on S878 within 5 min
same,Caskin2–Abi1 binding after growth factor,Caskin2–Abi1,reduction in Caskin2–Abi1 binding
Caskin2-PRR^4A–GFP: Caskin2–GFP with PxPxxPxR mutated to AxAxxAxA,precipitation of 14-3-3 proteins,14-3-3 proteins,precipitated with both Caskin2-FL–GFP and Caskin2-PRR^4A–GFP
same,colocalization with Abi1,Abi1,no such colocalization was observed
same,cell motility,GE11tetONβ1 cells,migrated at a similar speed as GFP-only-expressing cells
same,talin binding,endogenous talin,talin binding was unaffected
same,"precipitation of endogenous Abi1, Wasf1, Cyfip2 and Nckap1",[1],none of these were precipitated
same,HA–Abi1 binding,HA–Abi1,neither of these constructs could precipitate co-expressed HA-tagged Abi1
Caskin2-FL–GFP: full-length Caskin2 fused to GFP,precipitation of 14-3-3 proteins,14-3-3 proteins,precipitated with both Caskin2-FL–GFP and Caskin2-PRR^4A–GFP
same,colocalization with Abi1,Abi1,colocalized with Abi1 at the cell periphery
same,increase in cell motility compared to GFP-only expression,GE11tetONβ1 cells,~45%
same,talin binding,talin,the interaction is independent of integrin β1
same,"precipitation of endogenous Abi1, Wasf1, Cyfip2 and Nckap1",[1],"precipitated endogenous Abi1, Wasf1, Cyfip2 and Nckap1"
same,HA–Abi1 binding,HA–Abi1,efficiently pulled down
"Caskin2-S877D–GFP: phosphomimetic mutant of Caskin2–GFP, S877 to aspartic acid",HA–Abi1 binding,HA–Abi1,no obvious difference in binding
Caskin2-ΔLD–GFP: Caskin2 construct with the LD motif deleted (L1183–D1202 deleted) fused to GFP,cell motility,GE11tetONβ1 cells,no difference in motility between Caskin2-FL–GFP- and Caskin2-ΔLD–GFP- expressing cells
same,talin binding,talin,the LD motif is required for the interaction with talin
"COc1ccc(-c2ccc3c(N4CCOC[C@@H]4C)nc(N4CCOC[C@@H]4C)nc3n2)cc1CO [AZD8055, reference compound]",EGF-induced phosphorylation of Caskin2 at serine 878 with inhibitor,pCaskin2 (S878),reduced phosphorylation of Caskin2
same,EGF-stimulated loss of Abi1 binding with inhibitor,Caskin2–Abi1,"only Trametinib, either alone or in combination with AZD8055 inhibited the EGF-stimulated loss of Abi1 binding"
EGF: growth factor (Sigma-Aldrich),Caskin2 phosphorylation on S878 after growth factor,pCaskin2 (S878),increase in Caskin2 phosphorylation on S878 within 5 min
same,Caskin2–Abi1 binding after growth factor,Caskin2–Abi1,reduction in Caskin2–Abi1 binding
"CC(=O)Nc1cccc(-n2c(=O)n(C3CC3)c(=O)c3c(Nc4ccc(I)cc4F)n(C)c(=O)c(C)c32)c1 [Trametinib, reference compound]",EGF-induced phosphorylation of Caskin2 at serine 878 with inhibitor,pCaskin2 (S878),reduced phosphorylation of Caskin2
same,EGF-stimulated loss of Abi1 binding with inhibitor,Caskin2–Abi1,inhibited the EGF-stimulated loss of Abi1 binding
"Caskin2-4A–GFP: GFP-fused Caskin2 mutant with four amino acids (L1183, F1190, L1197, L1201) replaced by alanine",talin binding,endogenous talin,failed to pull down endogenous talin
Caskin2-ΔPRR–GFP: Caskin2–GFP lacking amino acids 746–1035,colocalization with Abi1,Abi1,no such colocalization was observed
same,cell motility,GE11tetONβ1 cells,migrated at a similar speed as GFP-only-expressing cells
same,talin binding,endogenous talin,talin binding was unaffected
same,HA–Abi1 binding,HA–Abi1,neither of these constructs could precipitate co-expressed HA-tagged Abi1
"full-length exogenous talin: full-length exogenous talin, GFP-tagged",Caskin2 binding to talin construct,Caskin2,only limited binding
Talin-R2E–GFP: talin mutant carrying two reverse charge mutations (R1523E and K1530E),Caskin2 binding to talin construct,Caskin2,slightly increased binding

# Source: article PMC11166458, “Caskin2 is a novel talin- and Abi1-binding protein that promotes cell motility” (Journal of Cell Science, 2024)
